Measurements reported in patent publication EP4008401A1, “COMPOSITION FOR CARTILAGE REGENERATION PROMOTION” (Suntory Holdings Limited, priority 2019, dated 2021).
Where two headings read alike, the source gives them in different places.

Test system: human synovial cells
Assay: Cartilage pellet culture of human synovial cells (weight of cartilage pellets; differentiation into cartilage cells)
Format: cell-based
Details: for activity at 5 µM / activity at 50 µM: Homo sapiens, Synovial cell, 504 h, read-out: Rate of increase (%); for Weight of pellets (g) (Ave): cultured three weeks; for weight of the cartilage pellets as compared to the control: result in words
Protocol: Purchased human synovial cells (available from Toyobo Co., Ltd.; HFLS (Normal), cryopreserved cells (adult); Code No. CA40805a) were seeded into a 150 mm culture dish (available from Corning) at a low density of 50 cells/cm^2 and cultured for 14 days.
The human synovial cells were cultured in the following medium. • α-MEM (available from Nacalai Tesque Inc.) • 10% Fetal bovine serum (available from Sigma-Aldrich) Antibiotic-Antimycotic Mixed Stock Solution (available from Nacalai Tesque Inc.)
Proliferated human synovial cells were detached with Accutase (available from Funakoshi Co., Ltd.), and the medium containing 20 × 10^4 cells was placed in a 15 mL tube made of polypropylene, followed by centrifugation at 1000 × rpm for five minutes. The recovered human synovial cells were cultured in a medium containing a test compound shown in Table 1 for three weeks, and the weight of the resultant cartilage pellets was measured (N = 3, each). The medium containing the test compound was replaced once in two or three days. The test compound was dissolved in the medium using dimethyl sulfoxide (DMSO) (available from Nacalai Tesque Inc.; final concentration: 0.1%) to a final concentration of 50 µM. The test compound was taxifolin (available from Sigma-Aldrich) or hesperetin (available from Funakoshi Co., Ltd.).
The cartilage pellets were cultured in the following medium. The control was cultured by adding DMSO without test compounds to the medium described below (final concentration of DMSO: 0.1%).
DMEM high-glucose (available from Thermo Fisher Scientific) 50 µg/mL L-ascorbic acid 2-phosphate sesquimagnesium salt hydrate (available from Sigma-Aldrich) 40 µg/mL L-proline (available from Sigma-Aldrich) 100 µg/mL Sodium pyruvate (available from Sigma-Aldrich) 50 mg/mL ITS + Premix (available from Corning) 10 ng/mL Transforming growth factor β3 (available from Sigma-Aldrich) 100 nM Dexamethasone (available from Sigma-Aldrich) 50 ng/mL Bone morphogenetic protein 2 (BMP-2) (available from Sigma-Aldrich)
In Table 1, the weight of pellets (g) is the weight of the cartilage pellets (average with N of 3), and SE is the standard error of the weight of pellets. […] A significant difference in the rate of increase (%) determined from the weight of the cartilage pellets relative to the control was tested by Student's t-test, with the significance level being 5% or lower. […]
The test of Example 1 was repeated, except that quercetin (available from Nacalai Tesque Inc.), isorhamnetin (available from Funakoshi Co., Ltd.), or eriodictyol (available from Funakoshi Co., Ltd.) was used as a test compound, and the test compound in the medium was adjusted to a final concentration of 5 µM. […] A significant difference test was performed as in Example 1, with the significance level being 5% or lower.
The test of Example 1 was repeated, except that luteolin (available from Funakoshi Co., Ltd.) or morin (available from Nacalai Tesque Inc.) was used as a test compound, and the test compound in the medium was adjusted to a final concentration of 5 µM. […] A significant difference test was performed as in Example 1, with the significance level being 5% or lower and the marginal significance level being 10% or lower. […]
The test of Example 1 was repeated, except that the compounds shown in Table 4 were used as test compounds and tested with N = 1. […] The final concentration of each of the compounds Nos. 1 to 15 in the medium was adjusted to 5 µM. The final concentration of each of the compounds Nos. 16 to 21 in the medium was adjusted to 50 µM.

[1] = Comparative Example 1, compounds Nos. 1 to 15, 5 µM, weight relative to control taken as 100%, N = 1
[2] = Comparative Example 1, compounds Nos. 16 to 21, 50 µM, weight relative to control taken as 100%, N = 1
[3] = Example 2, test compound 5 µM in medium, average with N of 3
[4] = Example 2, 5 µM, weight of cartilage pellets relative to control taken as 100%, N = 3
[5] = Example 1, test compound 50 µM in medium, average with N of 3
[6] = Example 1, 50 µM, weight of cartilage pellets relative to control taken as 100%, N = 3
[7] = Example 3, test compound 5 µM in medium, average of N of 3
[8] = Example 3, 5 µM, weight of cartilage pellets relative to control taken as 100%, N = 3

Compound `O=C(/C=C/c1ccc(O)c(O)c1)c1c(O)cc(O)cc1O` [3,4,2',4',6'-Pentahydroxychalcon] has an activity at 5 µM [1] of 111%.

`O=C(/C=C/c1ccc(O)cc1)c1c(O)cc(O)cc1O` [4,2',4',6'-Tetrahydroxychalcon] was tested, and the activity at 5 µM [1] was 118%.

In the case of `O=c1c(-c2ccc(O)c(O)c2)coc2cc(O)ccc12` [7,3',4'-Trihydroxyisoflavone], the activity at 5 µM [1] is reported as 95.3%.

`O=c1cc(-c2ccc(O)cc2)oc2cc(O)cc(O)c12` [Apigenin] showed an activity at 5 µM [1] of 105%.

Compound `C[C@@H]1O[C@@H](O[C@H]2C(=O)c3c(O)cc(O)cc3O[C@@H]2c2ccc(O)c(O)c2)[C@H](O)[C@H](O)[C@H]1O` [Astilbin] has an activity at 5 µM [1] of 60.5%.

`COc1ccc(-c2coc3cc(O)cc(O)c3c2=O)cc1` [Biochaninn A] showed an activity at 5 µM [1] of 21.4%.

Compound `COc1ccc(-c2coc3cc(O)ccc3c2=O)cc1O` [Calycosin] has an activity at 5 µM [1] of 95.3%.

`Oc1cc(O)c2c(c1)OC(c1ccc(O)c(O)c1)C(O)C2` (stereo not drawn) [Catechin] was tested, and the activity at 50 µM was 112%.

`O=c1cc(-c2ccccc2)oc2cc(O)cc(O)c12` [Chrysin] gave an activity at 50 µM [2] of 108%.

`Oc1cc(O)c2cc(O)c(-c3ccc(O)c(O)c3)[o+]c2c1` [Cyanidin] showed an activity at 5 µM [1] of 51.2%.

`O=c1c(-c2ccc(O)cc2)coc2cc(O)ccc12` [Daidzein] was tested, and the activity at 5 µM [1] was 100%.

`Oc1cc(O)c2cc(O)c(-c3cc(O)c(O)c(O)c3)[o+]c2c1` [Delphinidin] showed an activity at 5 µM [1] of 41.9%.

`O=C1c2c(O)cc(O)cc2OCC1c1ccc(O)cc1` (stereo not drawn) [Dihydrogenistein] gave an activity at 50 µM [2] of 92.9%.

Work on `Oc1cc(O)c2c(c1)O[C@H](c1ccc(O)c(O)c1)[C@H](O)C2` [Epicatechin] yielded an activity at 50 µM [2] of 117%.

In the case of `Oc1ccc([C@H]2COc3cc(O)ccc3C2)cc1` [Equol], the activity at 5 µM is reported as 81.4%.

`O=C1C[C@@H](c2ccc(O)c(O)c2)Oc2cc(O)cc(O)c21` [Eriodictyol, eriodictyol] was tested, and the “Weight of pellets (g) (Ave)” value [3] was 4.80 g, the “weight of the cartilage pellets as compared to the control” value (shortened to “weight … compared to the control”) (Examples 2 and 3, 5 µM) was “significant increase” and the activity at 5 µM [4] was 132%.

With `COc1ccc(-c2coc3cc(O)ccc3c2=O)cc1` [Formononetin] the activity at 5 µM [1] was 100%.

In the case of `O=c1c(-c2ccc(O)cc2)coc2cc(O)cc(O)c12` [Genistein], the activity at 5 µM [1] is reported as 104%.

With `COc1ccc([C@@H]2CC(=O)c3c(O)cc(O)cc3O2)cc1O` [Hesperetin, hesperetin] the “weight … compared to the control” value (Example 1, 50 µM) was “significant increase”, the “Weight of pellets (g) (Ave)” value [5] was 5.50 g and the activity at 50 µM [6] was 139%.

`O=C(/C=C/c1ccc(O)cc1)c1ccc(O)cc1O` [Isoliquiritigenin] showed an activity at 5 µM of 82.1%.

For `COc1cc(-c2oc3cc(O)cc(O)c3c(=O)c2O)ccc1O` [Isorham netin, isorhamnetin], the “Weight of pellets (g) (Ave)” value [3] was 5.77 g, the “weight … compared to the control” value (Examples 2 and 3, 5 µM) was “significant increase” and the activity at 5 µM [4] was 159%.

With `O=c1c(O)c(-c2ccc(O)cc2)oc2cc(O)cc(O)c12` [Kaempferol] the activity at 50 µM [2] was 95.8%.

In the case of `O=c1cc(-c2ccc(O)c(O)c2)oc2cc(O)cc(O)c12` [Luteolin, luteolin], the “Weight of pellets (g) (Ave)” value [7] is reported as 3.53 g, the “weight … compared to the control” value (Examples 2 and 3, 5 µM) is reported as “increase” and the activity at 5 µM [8] is reported as 128%.

For `O=c1c(O)c(-c2ccc(O)cc2O)oc2cc(O)cc(O)c12` [Morin, morin], the “Weight of pellets (g) (Ave)” value [7] was 4.00 g, the “weight … compared to the control” value (Examples 2 and 3, 5 µM) was “significant increase” and the activity at 5 µM [8] was 145%.

`O=c1c(O)c(-c2cc(O)c(O)c(O)c2)oc2cc(O)cc(O)c12` [Myricetin] gave an activity at 5 µM [1] of 69.8%.

`O=C1C[C@@H](c2ccc(O)cc2)Oc2cc(O)cc(O)c21` [Naringenin] gave an activity at 50 µM [2] of 117%.

For `O=c1c(O)c(-c2ccc(O)c(O)c2)oc2cc(O)cc(O)c12` [Quercetin, quercetin], the “Weight of pellets (g) (Ave)” value [3] was 5.90 g, the “weight … compared to the control” value (Examples 2 and 3, 5 µM) was “significant increase” and the activity at 5 µM [4] was 162%.

`O=C1c2c(O)cc(O)cc2O[C@H](c2ccc(O)c(O)c2)[C@H]1O` [Taxifolin, taxifolin] was tested, and the “weight … compared to the control” value (Example 1, 50 µM) was “significant increase”, the “Weight of pellets (g) (Ave)” value [5] was 5.73 g and the activity at 50 µM [6] was 144%.
